Changes are numbered by the printed parent chain.

Common to all, as to test: E. coli prhlA-luxCDABE luciferase reporter assay
(In a reporter assay the amount or activity of a reporter protein is the signal.)

In one assay the target is T1, RhlR (T58F) (Pseudomonas aeruginosa, UniProt P54292, T58F).
T1 construct: expressed in transfected cells; host or cells: E. coli carrying pBAD-A-rhlR mutant, pCS26-prhlA-luxCDABE and pACYC-pqsE or empty pACYC
T1 sequence (P54292 1-241 T58F): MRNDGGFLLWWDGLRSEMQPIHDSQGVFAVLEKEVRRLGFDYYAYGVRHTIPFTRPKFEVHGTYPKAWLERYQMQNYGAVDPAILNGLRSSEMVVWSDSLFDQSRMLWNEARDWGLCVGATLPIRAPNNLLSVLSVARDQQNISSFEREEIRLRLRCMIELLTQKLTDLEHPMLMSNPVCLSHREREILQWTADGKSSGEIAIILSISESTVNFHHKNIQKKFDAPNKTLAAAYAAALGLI
Format: cell-based, Escherichia coli. An excerpt:
(§1) Previous analysis of the RhlR LBP focused on highly conserved residues that were known from other AHL-binding proteins to be important contacts for AHL molecules, particularly the lactone head group. We performed conservation analyses on 300 LuxR-type receptors to determine variable and moderately conserved residues in the LBP (Fig. 1B) and, in conjunction with our previously determined experimental structure of WT RhlR bound to the synthetic agonist mBTL, used for docking C4- and C6HSL. Based on our docking simulations, C4- and C6HSL occupy a similar position in the LBP as mBTL, a highly efficacious activator of RhlR (Fig. 1C; Fig. S1). We targeted residues A44, G46, T58, L69, Y72, D81, I84, W96, and W108 (Fig. 1B and C). These residues were selected because of their proximity to the acyl tail of C4HSL, as well as the differences in conservation that are observed at these sites. We used an E. coli luciferase reporter assay to monitor ligand-dependent activation of WT RhlR and RhlR variants. WT RhlR and RhlR variants were expressed under the control of an arabinose-inducible promoter (Fig. S2). Transcription was monitored by light production via the expression of the luxCDABE operon controlled by the RhlR-dependent promoter of rhlA. Binding of RhlR to the rhlA promoter is highly dependent on the C4HSL-RhlR interaction, based on ChIP-seq analyses performed in P. aeruginosa as well as previously published E. coli reporter systems ([34], [39]). After expressing WT RhlR and RhlR variants in the E. coli reporter system, we performed dose response assays using C4HSL to calculate the concentration of C4HSL required to activate the reporter system to 50% maximum levels (EC50 value; Table 1). As expected, transcription activation by WT RhlR increased with increased C4HSL levels, with an EC50 value of ~2 µM. We observed a range of responses. Figure 1C depicts the targeted residues, which are colored based on the effect of amino acid substitution.
(§2) RhlR requires the accessory-binding protein, PqsE, for maximal activity. To determine if PqsE expression altered the activation of RhlR variants, we assessed AHL-dependent RhlR activation of the prhlA-luxCDABE reporter in the presence of a third plasmid that constitutively expresses PqsE in E. coli. […] RhlR variants that were still active but with increased EC50 values for C4HSL could have their activity enhanced by PqsE. […] Thus, alterations to the LBP can diminish the additive effect of PqsE-dependent transcription, indicating a potential role of allosteric conformational changes dependent on ligand occupancy. […] RhlR variants at residues I84 and W108 could not be activated by C4HSL, and thus, light levels remained low at all concentrations that were tested. Unlike the aforementioned variants, RhlR I84M/W and RhlR W108F/Y were activated by the expression of PqsE (Fig. S4).
(§3) All E. coli strains in this study were grown overnight with shaking in 5 mL Luria-Bertani (LB) media supplemented with 100 µg/mL ampicillin, 50 µg/mL kanamycin, and 15 µg/mL tetracycline at 37°C overnight. Overnight cultures were diluted 1:100 into fresh media, grown at 37°C with shaking for 2 h until reaching OD600 = 0.4. Cultures were induced with a final concentration of 0.1% arabinose, and 198 μL of the induced culture was mixed with 2 μL of C4HSL dilutions in a clear-bottom, black-opaque 96-well plate (Corning) and grown at 37°C with shaking for 4 h. The C4HSL dilution series was performed 1:1 in dimethyl sulfoxide (DMSO) with a top final concentration of 10 μM. Luminescence and optical density were recorded using a Glomax (Promega) plate reader.

The target of the next assay is T2, RhlR (T58L) (Pseudomonas aeruginosa, UniProt P54292, T58L).
T2 construct: expressed in transfected cells; host or cells: E. coli carrying pBAD-A-rhlR mutant, pCS26-prhlA-luxCDABE and pACYC-pqsE or empty pACYC
T2 sequence (P54292 1-241 T58L): T1 sequence (P54292 1-241 T58F) with F58L
Format: cell-based, Escherichia coli.
Description: as §1, §2, §3

The next assay has as its target T3, RhlR (T58I) (Pseudomonas aeruginosa, UniProt P54292, T58I).
T3 construct: expressed in transfected cells; host or cells: E. coli carrying pBAD-A-rhlR mutant, pCS26-prhlA-luxCDABE and pACYC-pqsE or empty pACYC
T3 sequence (P54292 1-241 T58I): T1 sequence (P54292 1-241 T58F) with F58I
It is filed as cell-based, Escherichia coli.
Description: as §1, §2, §3

The target of the next assay is T4, RhlR A44W (Pseudomonas aeruginosa, UniProt P54292, A44W).
T4 construct: expressed in transfected cells; host or cells: E. coli carrying pBAD-A-rhlR mutant, pCS26-prhlA-luxCDABE and pACYC-pqsE or empty pACYC
Format: cell-based. The conditions noted are these: even at the highest dose of C4HSL tested. An excerpt: Previous analysis of the RhlR LBP focused on highly conserved residues that were known from other AHL-binding proteins to be important contacts for AHL molecules, particularly the lactone head group. We performed conservation analyses on 300 LuxR-type receptors to determine variable and moderately conserved residues in the LBP (Fig. 1B) and, in conjunction with our previously determined experimental structure of WT RhlR bound to the synthetic agonist mBTL, used for docking C4- and C6HSL. Based on our docking simulations, C4- and C6HSL occupy a similar position in the LBP as mBTL, a highly efficacious activator of RhlR (Fig. 1C; Fig. S1). We targeted residues A44, G46, T58, L69, Y72, D81, I84, W96, and W108 (Fig. 1B and C). These residues were selected because of their proximity to the acyl tail of C4HSL, as well as the differences in conservation that are observed at these sites. […] Transcription was monitored by light production via the expression of the luxCDABE operon controlled by the RhlR-dependent promoter of rhlA. […]
The range of responses to substitutions is best highlighted by changes at residue T58 (Fig. 2A). […] Indeed, of the LuxR-AHL experimentally determined structures, this region of the LBP is typically occupied by the acyl tail of long-chain AHLs or a hydrophobic residue ([5], [27], [29], [30], [42], [43]), a point we return to in the discussion. […]

Usually EC50 stands for the concentration needed to bring the measured effect to its halfway point. Low readings indicate a more potent agent, high ones a less potent agent. In the case of `CCCC(=O)N[C@H]1CCOC1=O` [C4HSL, N-butyryl-L-homoserine lactone], the EC50 was determined as 3210 nM at RhlR (T58F) (Vector (no pqsE)); 198 nM on RhlR (T58F) (pqsE co-expressed); 854 nM on RhlR (T58L) (Vector (no pqsE)); 99 nM at RhlR (T58L) (pqsE co-expressed); 1820 nM on RhlR (T58I) (Vector (no pqsE)); 120 nM at RhlR (T58I) (pqsE co-expressed). Also, the “activation by C4HSL in the reporter system” value at RhlR A44W is given as “not activated”.
